According to publication PMC10819888, “Benzimidazole-Based Derivatives as Apoptotic Antiproliferative Agents: Design, Synthesis, Docking, and Mechanistic Studies” (Molecules, 2024):
Like-named read-outs stand apart in the source and are kept apart here.

Columns and labels:
[1] = system: OVCAR-4; experiment: NCI-60 five-dose assay; format: cell-based, human; conditions: OVCAR-4, Ovarian Cancer
[2] = system: MDA-MB-231; experiment: NCI-60 five-dose assay; format: cell-based, human; conditions: MDA-MB-231, Breast Cancer
[3] = system: full panel of 60 human tumor cell lines; experiment: NCI-60 five-dose assay, full panel; format: cell-based
[4] = system: CAKI-1; experiment: NCI-60 five-dose assay; format: cell-based, human; conditions: CAKI-1, Renal Cancer
[5] = system: Renal Cancer subpanel; experiment: NCI-60 five-dose assay, subpanel; format: cell-based, human; conditions: Renal Cancer
[6] = system: MALME-3M; experiment: NCI-60 five-dose assay; format: cell-based, human; conditions: MALME-3M, Melanoma
[7] = system: T-47D; experiment: NCI-60 five-dose assay; format: cell-based, human; conditions: T-47D, Breast Cancer
[8] = system: DU-145; experiment: NCI-60 five-dose assay; format: cell-based, human; conditions: DU-145, Prostate Cancer
[9] = system: CCRF-CEM; experiment: NCI-60 five-dose assay; format: cell-based, human; conditions: CCRF-CEM, Leukemia
[10] = system: HCT-15; experiment: NCI-60 five-dose assay; format: cell-based, human; conditions: HCT-15, Colon Cancer
[11] = system: HT29; experiment: NCI-60 five-dose assay; format: cell-based, human; conditions: HT29, Colon Cancer
[12] = system: A549/ATCC; experiment: NCI-60 five-dose assay; format: cell-based, human; conditions: A549/ATCC, Non-Small Cell Lung Cancer
[13] = system: SW-620; experiment: NCI-60 five-dose assay; format: cell-based, human; conditions: SW-620, Colon Cancer
[14] = system: RPMI-8226; experiment: NCI-60 five-dose assay; format: cell-based, human; conditions: RPMI-8226, Leukemia
[15] = system: TK-10; experiment: NCI-60 five-dose assay; format: cell-based, human; conditions: TK-10, Renal Cancer
[16] = system: EKVX; experiment: NCI-60 five-dose assay; format: cell-based, human; conditions: EKVX, Non-Small Cell Lung Cancer
[17] = system: NCI-H23; experiment: NCI-60 five-dose assay; format: cell-based, human; conditions: NCI-H23, Non-Small Cell Lung Cancer
[18] = system: CNS Cancer subpanel; experiment: NCI-60 five-dose assay, subpanel; format: cell-based, human; conditions: CNS Cancer
[19] = system: NCI-H522; experiment: NCI-60 five-dose assay; format: cell-based, human; conditions: NCI-H522, Non-Small Cell Lung Cancer
[20] = system: SF-295; experiment: NCI-60 five-dose assay; format: cell-based, human; conditions: SF-295, CNS Cancer
[21] = system: OVCAR-8; experiment: NCI-60 five-dose assay; format: cell-based, human; conditions: OVCAR-8, Ovarian Cancer
[22] = system: SNB-75; experiment: NCI-60 five-dose assay; format: cell-based, human; conditions: SNB-75, CNS Cancer
[23] = system: SF-268; experiment: NCI-60 five-dose assay; format: cell-based, human; conditions: SF-268, CNS Cancer
[24] = system: OVCAR-5; experiment: NCI-60 five-dose assay; format: cell-based, human; conditions: OVCAR-5, Ovarian Cancer
[25] = system: HOP-92; experiment: NCI-60 five-dose assay; format: cell-based, human; conditions: HOP-92, Non-Small Cell Lung Cancer
[26] = molecular target: BRAF^V600E; experiment: biochemical
Chain of BRAF^V600E (P28028 whole entry V585E): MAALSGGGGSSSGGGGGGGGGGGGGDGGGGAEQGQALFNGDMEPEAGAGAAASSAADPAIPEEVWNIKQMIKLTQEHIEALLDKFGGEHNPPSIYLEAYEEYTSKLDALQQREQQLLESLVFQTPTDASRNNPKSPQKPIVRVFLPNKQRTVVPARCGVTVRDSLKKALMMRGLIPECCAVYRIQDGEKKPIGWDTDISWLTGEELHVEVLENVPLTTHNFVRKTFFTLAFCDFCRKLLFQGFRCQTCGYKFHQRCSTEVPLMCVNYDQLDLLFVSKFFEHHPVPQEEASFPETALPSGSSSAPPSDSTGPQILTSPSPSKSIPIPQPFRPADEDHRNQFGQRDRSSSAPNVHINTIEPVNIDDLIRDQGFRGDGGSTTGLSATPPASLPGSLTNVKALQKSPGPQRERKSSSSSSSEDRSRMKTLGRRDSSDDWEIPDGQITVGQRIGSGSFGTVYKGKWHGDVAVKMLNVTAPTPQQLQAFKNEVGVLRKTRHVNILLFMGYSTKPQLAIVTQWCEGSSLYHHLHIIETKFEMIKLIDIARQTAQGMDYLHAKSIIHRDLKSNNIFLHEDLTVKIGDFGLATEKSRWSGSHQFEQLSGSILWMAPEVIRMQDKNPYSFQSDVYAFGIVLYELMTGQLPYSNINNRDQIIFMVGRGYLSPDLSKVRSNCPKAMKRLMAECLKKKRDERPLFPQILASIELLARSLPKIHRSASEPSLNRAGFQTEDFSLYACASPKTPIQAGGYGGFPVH

[27] = Homo sapiens, read-out: GI50 Conc. per Cell Line
[28] = Homo sapiens, read-out: LC50 (the source's name)
[29] = Homo sapiens, average sensitivity of all subpanel cell lines, read-out: GI50 Subpanel MID b

With `COc1ccc(C=NNC(=O)c2ccc3[nH]c(-c4ccc(Cl)cc4)nc3c2)cc1` [Compound 4g, N′-(4-Methoxybenzylidene)-2-(4-chlorophenyl)-1H-benzimidazole-5-carbohydrazide] the GI50 [1, 27] was 1.79 µM, the CC50 [1, 28] was 6.33 µM and the TGI [1] was 3.36 µM. For the same compound, the GI50 [2, 27] was 2.42 µM, the CC50 [2, 28] was 18.8 µM and the TGI [2] was 5.45 µM. For the same compound, the GI50 ([3]; average sensitivity of all cell lines, read-out: MID a (GI50)) was 2.52 µM, the GI50 ([3]; five-dose assay, range over cell lines, read-out: GI50 range over the examined cell lines) was 0.997 to 7.81 µM and the TGI [4] was 6.03 µM. The GI50 [4, 27] was 2.1 µM, the CC50 [4, 28] was 25.6 µM and the GI50 [5, 29] was 2.2 µM. For the same compound, the “GI50 Selectivity Ratio (MID a/MID b)” value [5] was 1.14, the LC50 ([6]; Homo sapiens) was 7.9 µM and the GI50 [6, 27] was 1.67 µM. For the same compound, the TGI [6] was 3.63 µM, the GI50 ([7]; Homo sapiens, T47D, read-out: GI50 Conc. per Cell Line) was 1.94 µM and the CC50 ([7]; Homo sapiens, T47D, read-out: LC50 (the source's name)) was 30 µM. For the same compound, the TGI [7] was 4.83 µM, the TGI [8] was 4.61 µM and the GI50 [8, 27] was 1.98 µM. For the same compound, the CC50 [8, 28] was 14 µM, the TGI [9] was over 100 µM and the GI50 [9, 27] was 4.9 µM. It also gave a CC50 [9, 28] of over 100 µM, a TGI [10] of 12.80 µM and a GI50 [10, 27] of 3.24 µM. It also gave a CC50 [10, 28] of 82 µM, a TGI [11] of 22.10 µM and a GI50 ([11]; Homo sapiens, HT-29, read-out: GI50 Conc. per Cell Line) of 3.09 µM. The CC50 ([11]; Homo sapiens, HT-29, read-out: LC50 (the source's name)) was over 100 µM, the TGI [12] was 5.65 µM and the GI50 [12, 27] was 2.46 µM. For the same compound, the CC50 [12, 28] was 48.1 µM, the LC50 ([13]; Homo sapiens) was 31 µM and the GI50 [13, 27] was 2.41 µM. For the same compound, the TGI [13] was 5.58 µM, the GI50 [14, 27] was 0.997 µM and the CC50 [14, 28] was over 100 µM. The TGI [14] was 4.77 µM, the GI50 [15, 27] was 2.95 µM and the CC50 [15, 28] was 56.7 µM. For the same compound, the TGI [15] was 6.59 µM, the TGI [16] was 5.84 µM and the GI50 [16, 27] was 2.11 µM. It also gave a CC50 [16, 28] of 36.6 µM, a GI50 [17, 27] of 2.74 µM and a CC50 [17, 28] of 75.9 µM. For the same compound, the TGI [17] was 11.20 µM, the “GI50 Selectivity Ratio (MID a/MID b)” value [18] was 1.15 and the GI50 [18, 29] was 2.19 µM. The GI50 [19, 27] was 7.6 µM, the CC50 [19, 28] was over 100 µM and the TGI [19] was 81.50 µM. The GI50 [20, 27] was 2.23 µM, the CC50 [20, 28] was 15 µM and the TGI [20] was 5.05 µM. For the same compound, the GI50 [21, 27] was 3.19 µM, the CC50 [21, 28] was over 100 µM and the TGI [21] was 11.50 µM. The GI50 [22, 27] was 1.53 µM, the CC50 [22, 28] was 25.7 µM and the TGI [22] was 4.57 µM. The GI50 [23, 27] was 2.09 µM, the CC50 [23, 28] was 20.8 µM and the TGI [23] was 5.10 µM. The GI50 [24, 27] was 2.35 µM, the CC50 [24, 28] was 33.5 µM and the TGI [24] was 6.89 µM. It also gave a TGI [25] of 4.11 µM, an LC50 (50% lethal concentration) ([25]; Homo sapiens) of 15.1 µM and a GI50 [25, 27] of 1.52 µM. It also gave an IC50 [26] of 0.6 ± 0.05 µM.
